The results in this text go back to patent US20250375441A1, “ONCOLYTIC THERAPY WITH A DUAL HDAC3 AND HDAC8 TARGETING AGENT” (priority 2024, published 2025).

One assay deals with HDAC2 (Homo sapiens, UniProt Q92769). Kind of assay: ZEBRA flow cytometry in cells overexpressing FLAG-HDAC2. The settings on record: HH514-16, 1 μM YX968 or 3 mM NaB, 24 hours after treatment, N=3.
A further assay concerns EBV. The assay is described as follows: EBV viral load by qPCR for BALF5, normalized to 18S. The settings on record: HH514-16, 1 μM YX968 for 18 hours, then ganciclovir 40 μM; vs no ganciclovir, N=2. In kind it is cell-based. The method, then:
Ganciclovir was then added at a concentration of 40 μM. Cells were then centrifuged, DNA was extracted, and qPCR for BALF5—a single copy EBV gene—was then used to determine the viral load of EBV in the cells. The ribosomal gene 18S was used as the control to normalize for the number of cells collected. […] N=2 biological replicates.
For orientation: In qPCR the cycle at which signal appears reflects the starting amount.

For a further assay, the target named is HDAC1 (Homo sapiens, UniProt Q13547). Kind of assay: ZEBRA flow cytometry in cells overexpressing HDAC1-FLAG. The settings on record: HH514-16, 1 μM YX968, 24 hours after treatment, N=3.
The next assay has as its system HH514-16 cells. The assay is described as follows: Cell death after exposure. In kind it is cell-based. The settings on record: 1 μM, 72 hours, vs DMSO (0.1%), N=2.
Assay [1] relates to EBV-positive HH514-16 Burkitt lymphoma cell line. Kind of assay: ZEBRA staining by flow cytometry (EBV lytic reactivation). In kind it is cell-based. The settings on record: HH514-16, varying concentrations, 24 hours, vs DMSO (0.1%). An excerpt: Cells were harvested, fixed and permeabilized, stained with a monoclonal antibody to the viral latent-to-lytic switch protein ZEBRA (Bam Z EBV Replication Activator), and examined by flow cytometry. ZEBRA is an early lytic protein of EBV, encoded by BZLF1, that drives the lytic cascade. Cells were stained in parallel with an isotype-matched control antibody for placement of gates.
(A flow cytometer gives signals particle by particle.)

Assay [2] relates to lymphoma cell line BC1 latently infected with KSHV. In kind it is cell-based.
Assay [3] concerns EBV-positive HH514-16 Burkitt lymphoma cell line. The assay is described as follows: qPCR of late lytic gene BFRF3. In kind it is cell-based. As to conditions: HH514-16, varying concentrations, 48 hours, vs DMSO (0.1%), N=3. As to the method: Cells were harvested, RNA was extracted, RNA was converted to cDNA, and qPCR was performed. Expression of BFRF3, a late lytic gene, is increased (FIG. 2). […] Progression of the lytic cycle to late lytic gene expression indicates availability of the early gene product needed to activate ganciclovir. N=3 biological replicates.

The next assay has as its system BZLF1 promoter. Kind of assay: H3K27Ac chromatin immunoprecipitation and qPCR at the BZLF1 promoter. The settings on record: HH514-16, 1 μM, 12 hours, vs DMSO (0.1%).

Sequence of HDAC2 (Q92769 whole entry): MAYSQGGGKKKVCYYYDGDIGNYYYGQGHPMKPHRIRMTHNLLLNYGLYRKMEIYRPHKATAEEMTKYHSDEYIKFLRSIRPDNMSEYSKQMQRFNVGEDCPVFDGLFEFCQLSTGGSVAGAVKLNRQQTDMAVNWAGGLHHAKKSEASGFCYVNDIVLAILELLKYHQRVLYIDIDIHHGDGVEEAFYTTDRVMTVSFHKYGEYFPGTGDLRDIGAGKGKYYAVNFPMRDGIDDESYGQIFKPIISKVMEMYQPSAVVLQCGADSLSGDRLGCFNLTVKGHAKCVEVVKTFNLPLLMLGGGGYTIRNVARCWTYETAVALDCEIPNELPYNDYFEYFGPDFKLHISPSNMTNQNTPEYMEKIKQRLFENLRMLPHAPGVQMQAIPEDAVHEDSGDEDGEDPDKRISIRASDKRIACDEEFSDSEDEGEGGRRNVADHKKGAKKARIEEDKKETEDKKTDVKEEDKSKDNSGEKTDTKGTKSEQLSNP
Sequence of HDAC1 (Q13547 whole entry): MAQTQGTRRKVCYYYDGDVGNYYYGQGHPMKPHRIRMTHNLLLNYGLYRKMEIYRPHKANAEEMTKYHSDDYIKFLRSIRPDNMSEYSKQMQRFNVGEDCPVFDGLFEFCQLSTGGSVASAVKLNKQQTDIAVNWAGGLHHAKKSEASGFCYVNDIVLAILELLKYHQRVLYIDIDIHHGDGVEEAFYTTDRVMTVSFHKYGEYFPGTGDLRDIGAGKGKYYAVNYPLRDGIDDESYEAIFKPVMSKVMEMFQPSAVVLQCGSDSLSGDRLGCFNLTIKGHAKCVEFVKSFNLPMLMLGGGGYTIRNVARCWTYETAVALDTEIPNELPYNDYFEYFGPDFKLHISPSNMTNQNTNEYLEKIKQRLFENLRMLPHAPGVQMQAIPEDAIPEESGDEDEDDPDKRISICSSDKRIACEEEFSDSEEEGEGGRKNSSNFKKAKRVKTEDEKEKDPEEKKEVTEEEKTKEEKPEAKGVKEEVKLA

For the molecule `CCCC(=O)[O-].[Na+]` [NaB, sodium butyrate, reference compound], the “ZEBRA expression post-induction, HDAC2 overexpressing vs not overexpressing cells” value at HDAC2 is reported as “less likely to express ZEBRA”.
For `Nc1nc(O)c2ncn(COC(CO)CO)c2n1` [ganciclovir], in the assay on EBV, the “viral load of EBV” value was “significantly lower”.
In the case of `CCCNNC(=O)c1ccc(N2CCN(CCCCCCCC(=O)N[C@H](C(=O)N3C[C@H](O)C[C@H]3C(=O)N[C@@H](C)c3ccc(-c4scnc4C)cc3)C(C)(C)C)CC2)cc1` [YX968], at HDAC2, the “ZEBRA expression post-induction, HDAC2 overexpressing vs not overexpressing cells” value is reported as “less likely to express ZEBRA”. The “number of cells that expressed ZEBRA, HDAC1 overexpressing (FLAG positive) vs FLAG negative” value on HDAC1 is “no significant change”. Further, in the assay on HH514-16 cells, the cells left alive entry was “significantly fewer cells left alive”. Further, the “levels of ZEBRA (EBV switching to lytic phase)” value in assay [1] was “increased levels of ZEBRA”. For the same molecule, the “expression of immediate early gene RTA” value in assay [2] is “increases in expression”. Also, in assay [3], the “expression of BFRF3, a late lytic gene” value is reported as “increased”. In addition, the “amount of acetylated H3K27 at the BZLF1 promoter (fold enrichment vs control IgG)” value with BZLF1 promoter is given as “statistically significant increase”.
